Data taken from US20210369583A1, “COMPOSITIONS FOR PROVIDING SKIN CARE BENEFITS AND METHODS OF USE” (Danisco US Inc., priority 2018, published 2021).
Several values for one entry are separate records, joined by “and”; a condition that tells them apart may be missing. Identical values can stand only once.

Tests used:
Assay type in all cases: cell-based
[1] = test system: Normal Human Epidermal Keratinocytes (NHEK); assay: Osmoprotective effect on keratinocytes under hyper-osmotic conditions (NaCl 150 mM), flow cytometry
Description: (§1) The type of cells use for this study were Normal Human Epidermal Keratinocytes (NHEK), Bioalternatives reference K341 used at the 3rd passage. The culture conditions were: 37° C., 5% CO2. The culture medium is referred to as “keratinocyte-SFM” supplemented with Epidermal Growth Factor (EGF) 0.25 ng/ml, Pituitary extract (PE) 25 μg/ml, Gentamycin 25 μg/ml. The assay medium was “keratinocyte-SFM” supplemented with gentamycin 25 μg/ml.
(§2) Keratinocytes (NHEK) were seeded in 24-well plates and cultured for 24 hours in culture medium. The medium was then replaced by assay medium containing or not (control) the single osmolyte or the combination of osmolytes C1 or C2 and cells were pre-incubated for 24 hours.
For hyper-osmotic conditions, the medium was removed and replaced by assay medium containing NaCl at 150 mM and containing the single osmolyte or the combination of osmolytes (C1 or C2). The cells were then incubated for 48 hours. In parallel, a normo-osmotic control (no osmotic stress control) was performed.
(§3) At the end of incubation, culture medium was removed and the cells were rinsed with a PBS solution. The cells were then detached using trypsin treatment and transferred into tubes. After several washes in PBS/BSA 0.2%, the cells were labeled with a propidium iodide (PI) solution (staining of dead cells).
(§4) Cell populations were then analyzed for number (total number of event per well during a fixed time), size (FSC), granularity (SSC) and viability parameters (% PI-positive cells, equivalent to % dead cells) by flow cytometry using BD FACSVerse™ flow cytometer. • Acquisition 1 represents the number of events (=number of cells) passing one by one in front of the cytometer laser over a fixed time. It doesn't distinct dead or living cells at this step. By subtracting the number of events (in hyperosmotic or irradiated condition) from the total number of events in normoosmotic conditions, it is possible to calculate the number of cells that have been lysed due to the stress conditions. • Acquisition 2, represents, on a fixed number of events, 1) the detection of the light scattered when the cells are crossing the laser, FSC-A, from which can be calculated the cell size, 2) the detection of the cells stained by Propidium Iodide (dead cells) from which can be calculated the % of viable cells.

[2] = test system: Normal Human Epidermal Keratinocytes (NHEK); assay: Protection of keratinocytes under UV-irradiated and hyper-osmotic conditions, flow cytometry; conditions: NaCl 150 mM + UVB 250 mj/cm^2
Description: as §1, §2
For UV-irradiated and hyper-osmotic conditions, the medium was then removed and replaced by assay medium and the cells were irradiated with UVB at 250 mJ/cm2 (+UVA at 1.6 J/cm2). The lamp used was a SOL500 Sun simulator equipped with an H2 filter (Dr. Höle, AG). After irradiation, the medium was removed and replaced by assay medium containing NaCl at 150 mM (hyperosmotic conditions) and containing the single osmolyte or the combination of osmolytes (C1 or C2) and the cells were then incubated for 48 hours. In parallel, a non-irradiated and normo-osmotic control was performed.
as §3, §4

[3] = test system: Normal Human Epidermal Keratinocytes (NHEK); assay: Protection of keratinocytes under UV-irradiated conditions (UVB 250 mJ/cm2), flow cytometry
Description: as §1, §2
For UV-irradiated conditions, the medium was then removed and replaced by assay medium and the cells were irradiated with UVB at 250 mJ/cm2 (+UVA at 1.6 J/cm2). The lamp used was a SOL500 Sun simulator equipped with an H2 filter (Dr. Hole, AG). A non-irradiated control condition was performed in parallel. After irradiation, the medium was removed and replaced by assay medium containing or not (control) the single osmolyte or the combination of osmolytes (C1 or C2) and the cells were incubated for 48 hours.
as §3, §4

[4] = test system: Reconstructed Human Epidermis (RHE); assay: Caffein diffusion test on Reconstituted Human Epidermis (RHE); conditions: for caffein diffusion through RHE: systemic treatment
Description: By measuring the amount of […] […] The epidermis used was a Reconstructed Human Epidermis, called “RHE”, 0-day-old, batch no 01015-444, placed in culture conditions 37° C., 5% CO2. The assay medium was the Bioalternatives maintenance medium. RHE at Day 0 (when placed at the air/liquid interface) were placed in assay medium containing or not (control) the compounds, the combination or the reference (vitamin C at 200 μg/ml). This is referred to as a systemic application, to be differentiated from a topical application. RHE were then incubated for 7 days with treatment renewal at Day 3 and Day 5. All experimental conditions were performed in n=3. At the end of incubation (Day 7), radioactive […] ([^14[…] applied on the surface of each epidermis. The radioactivity contained in subnatants was measured by liquid scintillation after 30 minutes, 1, 2, 3, 4, 5, 6, 7 and 8 hours of incubation. The barrier function is calculated according to the below formula:

Structure (SMILES): O=C(O)[C@@H]1CCCN1 [L-Proline]
- % cell size difference compared to control hyperosmotic stress condition under 150 mM NaCl ([1]; 3 mg/ml total osmolytes): +4%
- % cell size difference compared to control hyperosmotic stress condition under 150 mM NaCl ([1]; 10 mg/ml total osmolytes): +13%
- viability at 3000 µg/mL ([1]; Homo sapiens, NHEK, NaCl 150 mM 48 h, 3 mg/ml, read-out: Cell viability, % hyperosmotic control): 143%
- Lysed cells, % normo-osmotic control (% cell lysis) ([1]; NaCl 150 mM 48 h, 3 mg/ml): 67.2%
- Lysed cells: Mean number of event per well normo-osmotic control − Mean number of event per well hyperosmotic conditions ([1]; NaCl 150 mM 48 h, 3 mg/ml): 73197
- Mean % viable cells = 100-% PI-positive cells = 100-% dead cells ([1]; NaCl 150 mM 48 h, 3 mg/ml): 69.6%
- Mean cell size FSC-A (au) ([1]; NaCl 150 mM 48 h, 3 mg/ml): 68417 au
- Total number of events per well, % hyperosmotic control ([1]; NaCl 150 mM 48 h, 3 mg/ml): 130%
- Total number of events per well, Mean (au) ([1]; NaCl 150 mM 48 h, 3 mg/ml): 18676 au
- Cell size, % hyperosmotic control ([1]; NaCl 150 mM 48 h, 10 mg/ml): 113%
- Lysed cells, % normo-osmotic control (% cell lysis) ([1]; NaCl 150 mM 48 h, 10 mg/ml): 41.7% and 67.2%
- Lysed cells: Mean number of event per well normo-osmotic control − Mean number of event per well hyperosmotic conditions ([1]; NaCl 150 mM 48 h, 10 mg/ml): 56995
- Mean cell size FSC-A (au) ([1]; NaCl 150 mM 48 h, 10 mg/ml): 74581 au
- Total number of events per well, % hyperosmotic control ([1]; NaCl 150 mM 48 h, 10 mg/ml): 243%
- Total number of events per well, Mean (au) ([1]; NaCl 150 mM 48 h, 10 mg/ml): 34878 au
- Cell size, % hyperosmotic control ([2]; 3 mg/ml): 102%
- Mean cell size FSC-A (au) ([2]; 3 mg/ml): 69601 au
- Cell size, % hyperosmotic control ([2]; 10 mg/ml): 100%
- Mean cell size FSC-A (au) ([2]; 10 mg/ml): 68169 au
- viability at 3000 µg/mL ([3]; Homo sapiens, NHEK, light or radiation study, UVB 250 mj/cm^2, 3 mg/ml, read-out: Cell viability, % hyperosmotic control): 103%
- effect on cells submitted to UVB irradiation ([3]; UVB 250 mJ/cm^2 alone or in combination with hyperosmotic stress): no clear effect
- Cell size, % hyperosmotic control ([3]; UVB 250 mj/cm^2, 3 mg/ml): 110%
- Mean % viable cells = 100-% PI-positive cells = 100-% dead cells ([3]; UVB 250 mj/cm^2, 3 mg/ml): 86.4%
- Mean cell size FSC-A (au) ([3]; UVB 250 mj/cm^2, 3 mg/ml): 100519 au
- Cell size, % hyperosmotic control ([3]; UVB 250 mj/cm^2, 10 mg/ml): 110%
- Mean cell size FSC-A (au) ([3]; UVB 250 mj/cm^2, 10 mg/ml): 101243 au
- Barrier function % Control ([4]; 0.5 hrs, 3 mg/ml): 96%
- Mean [14C]-caffein (cpm) ([4]; 0.5 hrs, 3 mg/ml): 20720 cpm
- [14C]-caffein % Control ([4]; 0.5 hrs, 3 mg/ml): 105%
- Barrier function % Control ([4]; 0.5 hrs, 10 mg/ml): 98%
- Mean [14C]-caffein (cpm) ([4]; 0.5 hrs, 10 mg/ml): 20193 cpm
- [14C]-caffein % Control ([4]; 0.5 hrs, 10 mg/ml): 103%
- Barrier function % Control ([4]; 1 hrs, 3 mg/ml): 97%
- Mean [14C]-caffein (cpm) ([4]; 1 hrs, 3 mg/ml): 47352 cpm
- [14C]-caffein % Control ([4]; 1 hrs, 3 mg/ml): 104%
- Barrier function % Control ([4]; 1 hrs, 10 mg/ml): 100%
- Mean [14C]-caffein (cpm) ([4]; 1 hrs, 10 mg/ml): 45495 cpm
- [14C]-caffein % Control ([4]; 1 hrs, 10 mg/ml): 100%
- Barrier function % Control ([4]; 2 hrs, 3 mg/ml): 94%
- Mean [14C]-caffein (cpm) ([4]; 2 hrs, 3 mg/ml): 106026 cpm
- [14C]-caffein % Control ([4]; 2 hrs, 3 mg/ml): 106%
- Barrier function % Control ([4]; 2 hrs, 10 mg/ml): 98%
- Mean [14C]-caffein (cpm) ([4]; 2 hrs, 10 mg/ml): 102027 cpm
- [14C]-caffein % Control ([4]; 2 hrs, 10 mg/ml): 102%
- Barrier function % Control ([4]; 3 hrs, 3 mg/ml): 93%
- Mean [14C]-caffein (cpm) ([4]; 3 hrs, 3 mg/ml): 147545 cpm
- [14C]-caffein % Control ([4]; 3 hrs, 3 mg/ml): 108%
- Barrier function % Control ([4]; 3 hrs, 10 mg/ml): 98%
- Mean [14C]-caffein (cpm) ([4]; 3 hrs, 10 mg/ml): 140203 cpm
- [14C]-caffein % Control ([4]; 3 hrs, 10 mg/ml): 102%
- Barrier function % Control ([4]; 4 hrs, 3 mg/ml): 93%
- Mean [14C]-caffein (cpm) ([4]; 4 hrs, 3 mg/ml): 169001 cpm
- [14C]-caffein % Control ([4]; 4 hrs, 3 mg/ml): 107%
- Barrier function % Control ([4]; 4 hrs, 10 mg/ml): 97%
- Mean [14C]-caffein (cpm) ([4]; 4 hrs, 10 mg/ml): 162571 cpm
- [14C]-caffein % Control ([4]; 4 hrs, 10 mg/ml): 103%
- Barrier function % Control ([4]; 5 hrs, 3 mg/ml): 93%
- Mean [14C]-caffein (cpm) ([4]; 5 hrs, 3 mg/ml): 184911 cpm
- [14C]-caffein % Control ([4]; 5 hrs, 3 mg/ml): 107%
- Barrier function % Control ([4]; 5 hrs, 10 mg/ml): 98%
- Mean [14C]-caffein (cpm) ([4]; 5 hrs, 10 mg/ml): 176461 cpm
- [14C]-caffein % Control ([4]; 5 hrs, 10 mg/ml): 102%
- Barrier function % Control ([4]; 6 hrs, 3 mg/ml): 94%
- Mean [14C]-caffein (cpm) ([4]; 6 hrs, 3 mg/ml): 190819 cpm
- [14C]-caffein % Control ([4]; 6 hrs, 3 mg/ml): 106%
- Barrier function % Control ([4]; 6 hrs, 10 mg/ml): 99%
- Mean [14C]-caffein (cpm) ([4]; 6 hrs, 10 mg/ml): 181674 cpm
- [14C]-caffein % Control ([4]; 6 hrs, 10 mg/ml): 101%
- Barrier function % Control ([4]; 7 hrs, 3 mg/ml): 94%
- Mean [14C]-caffein (cpm) ([4]; 7 hrs, 3 mg/ml): 199859 cpm
- [14C]-caffein % Control ([4]; 7 hrs, 3 mg/ml): 106%
- Barrier function % Control ([4]; 7 hrs, 10 mg/ml): 99%
- Mean [14C]-caffein (cpm) ([4]; 7 hrs, 10 mg/ml): 190843 cpm
- [14C]-caffein % Control ([4]; 7 hrs, 10 mg/ml): 101%
- Barrier function % Control ([4]; 8 hrs, 3 mg/ml): 100% and 99%
- Barrier function (% L-Proline 3 mg/ml) ([4]; 8 hrs, 3 mg/ml): 104%
- Barrier function (% L-Proline 10 mg/ml) ([4]; 8 hrs, 3 mg/ml): 100%
- Mean [14C]-caffein (cpm) ([4]; 8 hrs, 3 mg/ml): 193655 cpm and 194941 cpm
- [14C]-caffein % Control ([4]; 8 hrs, 3 mg/ml): 100% and 101%
- Barrier function % Control ([4]; 8 hrs, 10 mg/ml): 95%
- Mean [14C]-caffein (cpm) ([4]; 8 hrs, 10 mg/ml): 203011 cpm
- [14C]-caffein % Control ([4]; 8 hrs, 10 mg/ml): 105%
- caffein diffusion through RHE ([4]; 3 mg/ml): did not decrease caffein diffusion
- caffein diffusion through RHE ([4]; 10 mg/ml): did not decrease caffein diffusion
